# Experimental data published in PubChem BioAssay AID248 (DTP/NCI, 2004).
# Where “and” joins values, the source holds several entries; their conditions need not be identical. Identical values can stand only once. Toxic doses and inconclusive results are not listed.
# Tested on: L1210 leukemia ip in BDF1 mice, survival T/C
# Test: NCI In Vivo Anticancer Drug Screen. Data for tumor model L1210 Leukemia (intraperitoneal) in B6D2F1 (BDF1) mice
# Conditions: higher = longer survival
# How it was run: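 Value reflects the ratio of survival in compound-treated mice to survival in vehicle-treated controls, with both groups carrying the same transplanted tumor.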
smiles,measurement,setting,value
Nc1nc(=O)n(C2OC(CO)C(O)C2O)cc1F (stereo not drawn),T/C,"endpoint: mean survival time, dose: 0.02 mg/kg/injection, schedule: Q#A X020 (ip), vehicle: saline",104 % of control
same,T/C,"endpoint: mean survival time, dose: 0.04 mg/kg/injection, schedule: Q#A X020 (ip), vehicle: saline",109 % of control
same,T/C,"endpoint: mean survival time, dose: 0.05 mg/kg/injection, schedule: Q01DX010 (ip), vehicle: saline",98 % of control
same,T/C,"endpoint: mean survival time, dose: 0.09 mg/kg/injection, schedule: Q01DX010 (ip), vehicle: saline",102 % of control
same,T/C,"endpoint: mean survival time, dose: 0.09 mg/kg/injection, schedule: Q#A X020 (ip), vehicle: saline",118 % of control
same,T/C,"endpoint: mean survival time, dose: 0.16 mg/kg/injection, schedule: Q03DX003 (ip), vehicle: saline",108 % of control
same,T/C,"endpoint: mean survival time, dose: 0.19 mg/kg/injection, schedule: Q01DX010 (ip), vehicle: saline",118 % of control
same,T/C,"endpoint: mean survival time, dose: 0.31 mg/kg/injection, schedule: Q03DX003 (ip), vehicle: saline",108 % of control
same,T/C,"endpoint: mean survival time, dose: 0.37 mg/kg/injection, schedule: Q#A X020 (ip), vehicle: saline",169 % of control
same,T/C,"endpoint: mean survival time, dose: 0.38 mg/kg/injection, schedule: Q01DX010 (im), vehicle: saline",114 % of control
same,T/C,"endpoint: mean survival time, dose: 0.38 mg/kg/injection, schedule: Q01DX010 (ip), vehicle: saline",110 % of control
same,T/C,"endpoint: mean survival time, dose: 0.38 mg/kg/injection, schedule: Q01DX010 (sc), vehicle: saline",112 % of control
same,T/C,"endpoint: mean survival time, dose: 0.63 mg/kg/injection, schedule: Q03DX003 (ip), vehicle: saline",122 % of control
same,T/C,"endpoint: mean survival time, dose: 0.75 mg/kg/injection, schedule: Q01DX010 (im), vehicle: saline",120 % of control
same,T/C,"endpoint: mean survival time, dose: 0.75 mg/kg/injection, schedule: Q#A X020 (ip), vehicle: saline",211 % of control
same,T/C,"endpoint: mean survival time, dose: 1.25 mg/kg/injection, schedule: Q03DX003 (ip), vehicle: saline",122 % of control
same,T/C,"endpoint: mean survival time, dose: 1.5 mg/kg/injection, schedule: Q01DX010 (ip), vehicle: saline",177 % of control
same,T/C,"endpoint: mean survival time, dose: 1.5 mg/kg/injection, schedule: Q#A X020 (ip), vehicle: saline",217 % of control
same,T/C,"endpoint: mean survival time, dose: 1.56 mg/kg/injection, schedule: Q01DX010 (oral), vehicle: saline",106 % of control
same,T/C,"endpoint: mean survival time, dose: 2.5 mg/kg/injection, schedule: Q01DX001 (ip), vehicle: saline",120 % of control
same,T/C,"endpoint: mean survival time, dose: 2.5 mg/kg/injection, schedule: Q03DX004 (ip), vehicle: saline",157 % of control
same,T/C,"endpoint: mean survival time, dose: 2.5 mg/kg/injection, schedule: Q07DX002 (ip), vehicle: saline",111 % of control
same,T/C,"endpoint: mean survival time, dose: 3.0 mg/kg/injection, schedule: Q01DX006 (iv), vehicle: saline",124 % of control
same,T/C,"endpoint: mean survival time, dose: 3.0 mg/kg/injection, schedule: Q01DX010 (im), vehicle: saline",159 % of control and 166 % of control
same,T/C,"endpoint: mean survival time, dose: 3.0 mg/kg/injection, schedule: Q01DX010 (ip), vehicle: saline",166 % of control
same,T/C,"endpoint: mean survival time, dose: 3.0 mg/kg/injection, schedule: Q01DX010 (sc), vehicle: saline",152 % of control and 162 % of control
same,T/C,"endpoint: mean survival time, dose: 3.12 mg/kg/injection, schedule: Q01DX015 (ip), vehicle: saline",195 % of control
same,T/C,"endpoint: mean survival time, dose: 3.13 mg/kg/injection, schedule: Q01DX010 (oral), vehicle: saline",112 % of control
same,T/C,"endpoint: mean survival time, dose: 4.0 mg/kg/injection, schedule: Q01DX009 (ip), vehicle: saline",173 % of control
same,T/C,"endpoint: mean survival time, dose: 5.0 mg/kg/injection, schedule: Q01DX001 (ip), vehicle: saline",122 % of control
same,T/C,"endpoint: mean survival time, dose: 5.0 mg/kg/injection, schedule: Q03DX004 (ip), vehicle: saline",157 % of control
same,T/C,"endpoint: mean survival time, dose: 6.0 mg/kg/injection, schedule: Q01DX010 (im), vehicle: saline",176 % of control
same,T/C,"endpoint: mean survival time, dose: 6.0 mg/kg/injection, schedule: Q01DX010 (ip), vehicle: saline",183 % of control
same,T/C,"endpoint: mean survival time, dose: 6.0 mg/kg/injection, schedule: Q01DX010 (sc), vehicle: saline",178 % of control
same,T/C,"endpoint: mean survival time, dose: 6.25 mg/kg/injection, schedule: Q01DX010 (oral), vehicle: saline",118 % of control
same,T/C,"endpoint: mean survival time, dose: 8.0 mg/kg/injection, schedule: Q01DX009 (ip), vehicle: saline",216 % of control
same,T/C,"endpoint: mean survival time, dose: 10.0 mg/kg/injection, schedule: Q01DX001 (ip), vehicle: saline",124 % of control
same,T/C,"endpoint: mean survival time, dose: 10.0 mg/kg/injection, schedule: Q03DX004 (ip), vehicle: saline",160 % of control
same,T/C,"endpoint: mean survival time, dose: 10.0 mg/kg/injection, schedule: Q03DX Z (ip), vehicle: saline",166 % of control
same,T/C,"endpoint: mean survival time, dose: 12.0 mg/kg/injection, schedule: Q01DX006 (iv), vehicle: saline",157 % of control
same,T/C,"endpoint: mean survival time, dose: 12.0 mg/kg/injection, schedule: Q01DX010 (im), vehicle: saline",217 % of control
same,T/C,"endpoint: mean survival time, dose: 12.0 mg/kg/injection, schedule: Q01DX010 (ip), vehicle: saline",197 % of control
same,T/C,"endpoint: mean survival time, dose: 12.0 mg/kg/injection, schedule: Q01DX010 (sc), vehicle: saline",203 % of control
same,T/C,"endpoint: mean survival time, dose: 12.0 mg/kg/injection, schedule: Q#A X020 (ip), vehicle: saline",201 % of control
same,T/C,"endpoint: mean survival time, dose: 12.5 mg/kg/injection, schedule: Q01DX010 (oral), vehicle: saline",153 % of control
same,T/C,"endpoint: mean survival time, dose: 20.0 mg/kg/injection, schedule: Q01DX001 (ip), vehicle: saline",118 % of control
same,T/C,"endpoint: mean survival time, dose: 20.0 mg/kg/injection, schedule: Q03DX Z (ip), vehicle: saline",174 % of control
same,T/C,"endpoint: mean survival time, dose: 24.0 mg/kg/injection, schedule: Q01DX006 (iv), vehicle: saline",160 % of control and 191 % of control
same,T/C,"endpoint: mean survival time, dose: 24.0 mg/kg/injection, schedule: Q01DX010 (ip), vehicle: saline",191 % of control
same,T/C,"endpoint: mean survival time, dose: 24.0 mg/kg/injection, schedule: Q#A X020 (ip), vehicle: saline",120 % of control
same,T/C,"endpoint: mean survival time, dose: 25.0 mg/kg/injection, schedule: Q01DX005 (ip), vehicle: saline",150 % of control and 160 % of control
same,T/C,"endpoint: mean survival time, dose: 25.0 mg/kg/injection, schedule: Q01DX010 (oral), vehicle: saline",174 % of control
same,T/C,"endpoint: mean survival time, dose: 40.0 mg/kg/injection, schedule: Q01DX001 (ip), vehicle: saline",122 % of control
same,T/C,"endpoint: mean survival time, dose: 40.0 mg/kg/injection, schedule: Q01DX005 (ip), vehicle: saline",174 % of control
same,T/C,"endpoint: mean survival time, dose: 40.0 mg/kg/injection, schedule: Q03DX Z (ip), vehicle: saline",198 % of control
same,T/C,"endpoint: mean survival time, dose: 48.0 mg/kg/injection, schedule: Q01DX006 (iv), vehicle: saline",180 % of control
same,T/C,"endpoint: mean survival time, dose: 48.0 mg/kg/injection, schedule: Q01DX010 (ip), vehicle: saline",116 % of control
same,T/C,"endpoint: mean survival time, dose: 48.0 mg/kg/injection, schedule: Q#A X020 (ip), vehicle: saline",101 % of control
same,T/C,"endpoint: mean survival time, dose: 50.0 mg/kg/injection, schedule: Q01DX001 (ip), vehicle: saline",124 % of control
same,T/C,"endpoint: mean survival time, dose: 50.0 mg/kg/injection, schedule: Q01DX010 (oral), vehicle: saline",186 % of control
same,T/C,"endpoint: mean survival time, dose: 64.0 mg/kg/injection, schedule: Q01DX009 (oral), vehicle: saline",168 % of control
same,T/C,"endpoint: mean survival time, dose: 80.0 mg/kg/injection, schedule: Q01DX005 (ip), vehicle: saline",168 % of control
same,T/C,"endpoint: mean survival time, dose: 80.0 mg/kg/injection, schedule: Q03DX004 (ip), vehicle: saline",180 % of control
same,T/C,"endpoint: mean survival time, dose: 80.0 mg/kg/injection, schedule: Q03DX Z (ip), vehicle: saline",201 % of control
same,T/C,"endpoint: mean survival time, dose: 96.0 mg/kg/injection, schedule: Q01DX006 (iv), vehicle: saline",177 % of control
same,T/C,"endpoint: mean survival time, dose: 96.0 mg/kg/injection, schedule: Q01DX010 (ip), vehicle: saline",112 % of control
same,T/C,"endpoint: mean survival time, dose: 96.0 mg/kg/injection, schedule: Q#A X020 (ip), vehicle: saline",103 % of control
same,T/C,"endpoint: mean survival time, dose: 100.0 mg/kg/injection, schedule: Q01DX001 (ip), vehicle: saline",118 % of control
same,T/C,"endpoint: mean survival time, dose: 100.0 mg/kg/injection, schedule: Q01DX009 (ip), vehicle: saline",183 % of control
same,T/C,"endpoint: mean survival time, dose: 100.0 mg/kg/injection, schedule: Q01DX010 (oral), vehicle: saline",157 % of control
same,T/C,"endpoint: mean survival time, dose: 128.0 mg/kg/injection, schedule: Q01DX001 (oral), vehicle: saline",110 % of control
same,T/C,"endpoint: mean survival time, dose: 128.0 mg/kg/injection, schedule: Q01DX009 (oral), vehicle: saline",181 % of control
same,T/C,"endpoint: mean survival time, dose: 160.0 mg/kg/injection, schedule: Q01DX005 (ip), vehicle: saline",168 % of control
same,T/C,"endpoint: mean survival time, dose: 160.0 mg/kg/injection, schedule: Q03DX004 (ip), vehicle: saline",198 % of control
same,T/C,"endpoint: mean survival time, dose: 160.0 mg/kg/injection, schedule: Q07DX002 (ip), vehicle: saline",154 % of control
same,T/C,"endpoint: mean survival time, dose: 160.0 mg/kg/injection, schedule: Q07DX Z (ip), vehicle: saline",152 % of control
same,T/C,"endpoint: mean survival time, dose: 192.0 mg/kg/injection, schedule: Q01DX006 (iv), vehicle: saline",95 % of control
same,T/C,"endpoint: mean survival time, dose: 192.0 mg/kg/injection, schedule: Q01DX010 (im), vehicle: saline",110 % of control
same,T/C,"endpoint: mean survival time, dose: 192.0 mg/kg/injection, schedule: Q01DX010 (ip), vehicle: saline",108 % of control
same,T/C,"endpoint: mean survival time, dose: 192.0 mg/kg/injection, schedule: Q01DX010 (sc), vehicle: saline",119 % of control
same,T/C,"endpoint: mean survival time, dose: 200.0 mg/kg/injection, schedule: Q01DX001 (ip), vehicle: saline",119 % of control
same,T/C,"endpoint: mean survival time, dose: 200.0 mg/kg/injection, schedule: Q01DX009 (ip), vehicle: saline",93 % of control
same,T/C,"endpoint: mean survival time, dose: 256.0 mg/kg/injection, schedule: Q01DX001 (oral), vehicle: saline",117 % of control
same,T/C,"endpoint: mean survival time, dose: 320.0 mg/kg/injection, schedule: Q07DX002 (ip), vehicle: saline",182 % of control
same,T/C,"endpoint: median survival time, dose: 2.0 mg/kg/injection, schedule: Q01DX009 (ip), vehicle: saline with Tween-80",168 % of control
same,T/C,"endpoint: median survival time, dose: 4.0 mg/kg/injection, schedule: Q01DX009 (ip), vehicle: saline with Tween-80",175 % of control
same,T/C,"endpoint: median survival time, dose: 4.0 mg/kg/injection, schedule: Q01DX009 (ip), vehicle: saline",160 % of control and 175 % of control
same,T/C,"endpoint: median survival time, dose: 8.0 mg/kg/injection, schedule: Q01DX009 (ip), vehicle: saline with Tween-80",183 % of control
same,T/C,"endpoint: median survival time, dose: 8.0 mg/kg/injection, schedule: Q01DX009 (ip), vehicle: saline",170 % of control and 187 % of control
same,T/C,"endpoint: median survival time, dose: 16.0 mg/kg/injection, schedule: Q01DX009 (ip), vehicle: saline with Tween-80",186 % of control
same,T/C,"endpoint: median survival time, dose: 16.0 mg/kg/injection, schedule: Q01DX009 (ip), vehicle: saline",190 % of control
same,T/C,"endpoint: median survival time, dose: 32.0 mg/kg/injection, schedule: Q01DX009 (ip), vehicle: saline with Tween-80",202 % of control
same,T/C,"endpoint: median survival time, dose: 32.0 mg/kg/injection, schedule: Q01DX009 (ip), vehicle: saline",160 % of control
